Several values for one entry are separate records, joined by “and”; a condition that tells them apart may be missing. Equal values may be shown once.
Test system: imiquimod-induced psoriasis
Assay: Imiquimod-induced psoriasis model
Type: in vivo, mice
Settings: for Body Weight D1: Day 1 (before treatment start on Day 8); for Body Weight D1 / Body Weight D3 / Body Weight D5 / Body Weight D7 / Body Weight D8 / Body Weight D9 / Body Weight D10 / Body Weight D11 / Body Weight D12 / Body Weight D13 / Body Weight D14 / Body Weight D15 / MBWC D1-D8 / MBWC D8-D15 / PASI Scores: individual animals; for Body Weight D3: Day 3 (before treatment start on Day 8); for Body Weight D5: Day 5 (before treatment start on Day 8); for Body Weight D7: Day 7 (before treatment start on Day 8); for Body Weight D8: Day 8 (first day of treatment); for Body Weight D9: Day 9; for Body Weight D10: Day 10; for Body Weight D11: Day 11; for Body Weight D12: Day 12; for Body Weight D13: Day 13; for Body Weight D14: Day 14; for Body Weight D15: Day 15; for MBWC D1-D8: body weight change Day 1 to Day 8 (before treatment); for MBWC D8-D15: body weight change Day 8 to Day 15 (treatment period); for PASI Scores: IMI + Compound B 1 mg/kg
Method in brief: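 Psoriasis-like dermatitis induced in mice by daily dorsal imiquimod cream (Days 1–14); dosing with Compound A (5% DMSO/40% PEG-400/55% saline vehicle) began Day 8. Read-outs: summed 0–4 scores for erythema, induration and peeling daily to Day 15, plus terminal spleen ratio, behaviour and serum cytokines.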

[1] = IMI + 1 mg/kg, 1 mg/kg, in g (unit assumed)
[2] = IMI + 3 mg/kg, 3 mg/kg, in g (unit assumed)
[3] = IMI + 10 mg/kg, 10 mg/kg, in g (unit assumed)

`COCCn1cc(-c2ccccc2)c(-c2cn(C)c(=O)c3[nH]c(-c4cnn(C(F)(F)F)c4)cc23)cc1=O` [Compound B, 4-(1-(2-methoxyethyl)-2-oxo-5-phenyl-1,2-dihydropyridin-4-yl)-6-methyl-2-(1-(trifluoromethyl)-1H-pyrazol-4-yl)-1,6-dihydro-7H-pyrrolo[2,3-c]pyridin-7-one] was tested, and the “symptoms by day 15 (representative images)” value (10 mg/kg (printed 10 mg/ml)) was “nearly entirely symptom free”, the “mean PASI score on day 15, dose dependence” value (1, 3, 10 mg/kg, 10 mg/kg most effective) was “dose-dependent decrease in PASI scores” and the “efficacy on the treatment of psoriasis” value (2 lowest doses of 1.0 and 3.0 mg/kg bw) was “moderate efficacy”. The “Body Weight D1” value (IMI + 1 mg/kg, 1 mg/kg) was 17.85 and 16.71 and 18.14 (2×) and 17.67 and 18.64 and 18.37 and 17.36, the “Body Weight D3” value [1] was 16.05 and 15.75 and 16.34 and 16.73 and 17.52 and 16.25 and 15.31 and 17.36 and the “Body Weight D5” value [1] was 15.71 and 15.27 and 17.54 and 16.77 and 17.97 and 16.83 and 15.98 and 16.57. For the same molecule, the “Body Weight D7” value [1] was 16.02 and 15.76 and 17.96 and 17.02 and 17.69 and 17.48 and 16.75 and 17.68, the “Body Weight D8” value [1] was 15.83 and 15.34 and 17.54 and 16.58 and 17.61 and 16.23 and 16.35 and 17.45 and the “Body Weight D9” value [1] was 15.70 and 15.29 and 17.68 and 16.64 and 17.26 and 15.94 and 16.69 and 17.21. For the same molecule, the “Body Weight D10” value [1] was 15.94 and 15.03 and 17.60 and 16.38 and 17.13 and 16.08 and 15.92 and 17.66, the “Body Weight D11” value [1] was 16.10 and 14.61 and 17.64 and 16.08 and 17.41 and 16.29 and 16.64 and 17.72 and the “Body Weight D12” value [1] was 16.03 and 14.93 and 17.80 and 16.29 and 17.39 and 16.49 and 16.17 and 17.53. The “Body Weight D13” value (IMI + 1 mg/kg, 1 mg/kg) was 16.53 and 14.84 and 18.05 and 16.45 (2×) and 17.04 (2×) and 16.34, the “Body Weight D14” value [1] was 16.38 and 14.75 and 18.20 and 16.97 and 17.80 and 16.16 and 16.37 and 17.46 and the “Body Weight D15” value [1] was 16.34 and 14.67 and 18.01 and 16.62 and 17.29 and 16.44 and 16.12 and 17.36. For the same molecule, the “MBWC D1-D8” value (IMI + 1 mg/kg, 1 mg/kg) was −2.02 and −1.37 and −0.60 and −1.09 and −1.03 and −2.14 and −1.01 and −0.69, the “MBWC D8-D15” value (IMI + 1 mg/kg, 1 mg/kg) was 0.51 and −0.67 and 0.47 and 0.04 and −0.32 and 0.21 and −0.23 and −0.09 and the “Body Weight D1” value [2] was 16.04 and 18.93 and 17.71 and 17.81 and 16.63 and 17.34 and 17.52 and 18.08. For the same molecule, the “Body Weight D3” value [2] was 13.11 and 16.65 and 15.84 and 16.79 and 15.99 and 16.64 and 14.93 and 16.90, the “Body Weight D5” value [2] was 14.01 and 16.29 and 15.26 and 17.65 and 16.66 and 17.47 and 16.35 and 16.80 and the “Body Weight D7” value [2] was 14.25 and 16.26 and 15.31 and 17.34 and 16.40 and 17.79 and 16.44 and 16.80. The “Body Weight D8” value (IMI + 3 mg/kg, 3 mg/kg) was 13.57 and 15.67 and 15.44 and 17.59 and 16.51 (2×) and 17.07 and 16.13, the “Body Weight D9” value [2] was 13.93 and 15.56 and 15.22 and 17.78 and 16.23 and 17.14 and 15.89 and 16.28 and the “Body Weight D10” value (IMI + 3 mg/kg, 3 mg/kg) was 14.23 and 15.76 (2×) and 17.87 and 16.28 and 17.32 and 15.99 and 16.22. The “Body Weight D11” value [2] was 13.97 and 16.26 and 15.22 and 17.70 and 16.63 and 16.90 and 16.81 and 17.13, the “Body Weight D12” value [2] was 14.44 and 16.57 and 15.46 and 17.60 and 17.05 and 16.97 and 16.65 and 17.68 and the “Body Weight D13” value [2] was 13.94 and 16.60 and 15.54 and 17.74 and 16.71 and 17.05 and 16.35 and 17.58. For the same molecule, the “Body Weight D14” value [2] was 13.70 and 16.12 and 15.70 and 17.96 and 17.04 and 17.47 and 16.08 and 17.19, the “Body Weight D15” value (IMI + 3 mg/kg, 3 mg/kg) was 13.78 and 16.88 and 15.93 and 18.05 and 17.29 (2×) and 17.08 and 15.94 and the “MBWC D1-D8” value (IMI + 3 mg/kg, 3 mg/kg) was −2.47 and −3.26 and −2.27 and −0.22 and −0.12 and −0.27 and −1.39 and −1.57. The “MBWC D8-D15” value (IMI + 3 mg/kg, 3 mg/kg) was 0.21 and 1.21 and 0.49 and 0.46 and 0.78 (2×) and 0.01 and −0.19, the “Body Weight D1” value [3] was 18.66 and 16.97 and 17.99 and 16.59 and 14.70 and 18.45 and 16.88 and 17.79 and the “Body Weight D3” value (IMI + 10 mg/kg, 10 mg/kg) was 16.89 and 15.12 (2×) and 16.64 and 15.35 and 12.66 and 15.18 and 15.47. The “Body Weight D5” value [3] was 16.85 and 16.05 and 17.14 and 16.55 and 13.95 and 16.19 and 15.85 and 16.46, the “Body Weight D7” value (IMI + 10 mg/kg, 10 mg/kg) was 17.09 and 15.74 and 18.31 and 16.60 and 14.04 and 16.64 (2×) and 16.00 and the “Body Weight D8” value [3] was 16.51 and 15.56 and 18.14 and 16.14 and 14.02 and 16.16 and 15.50 and 16.26. For the same molecule, the “Body Weight D9” value [3] was 16.61 and 15.20 and 17.85 and 15.85 and 13.92 and 15.86 and 15.31 and 16.41, the “Body Weight D10” value [3] was 16.48 and 15.64 and 18.33 and 16.10 and 13.59 and 15.70 and 15.00 and 15.80 and the “Body Weight D11” value [3] was 16.44 and 15.87 and 17.94 and 16.30 and 14.37 and 16.54 and 16.26 and 16.95. For the same molecule, the “Body Weight D12” value [3] was 16.63 and 16.40 and 18.54 and 16.96 and 14.74 and 16.69 and 16.23 and 17.34, the “Body Weight D13” value [3] was 17.12 and 16.52 and 18.44 and 16.93 and 14.68 and 16.17 and 16.27 and 16.95 and the “Body Weight D14” value [3] was 17.36 and 16.91 and 18.32 and 17.28 and 15.12 and 16.21 and 16.48 and 17.35. For the same molecule, the “Body Weight D15” value [3] was 18.01 and 16.93 and 18.51 and 17.31 and 15.47 and 16.86 and 16.66 and 17.96, the “MBWC D1-D8” value (IMI + 10 mg/kg, 10 mg/kg) was −2.15 and −1.41 and 0.15 and −0.45 and −0.68 and −2.29 and −1.38 and −1.53 and the “MBWC D8-D15” value (IMI + 10 mg/kg, 10 mg/kg) was 1.50 and 1.37 and 0.37 and 1.17 and 1.45 and 0.70 and 1.16 and 1.70. For the same molecule, the “PASI Scores” value (D8 (day treatment started)) was 7 (2×) and 6 (3×) and 8 (3×), the “PASI Scores” value (D9) was 8 (3×) and 9 and 5 (3×) and 6 and the “PASI Scores” value (D10) was 6 (4×) and 5 (2×) and 7 (2×). For the same molecule, the “PASI Scores” value (D11) was 8 and 6 (4×) and 4 and 7 and 9 and the “PASI Scores” value (D12) was 6 (6×) and 4 and 5.

— US20260217701A1, “SELECTIVE BET INHIBITORS AND USES THEREOF” (Tay Therapeutics Limited, priority 2022, published 2026)
